Experimental findings from US9504675B2, “Alpha-ketoheterocycles and methods of making and using” (The Scripps Research Institute, priority 2011, dated 2016) are described below.

Series [1] is described as follows: Rat liver microsome stability (rlm t1/2). Type of series: in vitro ADME. The note with it: rat liver microsomes.
Series [2] is described as follows: Human liver microsome stability (hlm t1/2). The note with it: human liver microsomes. The class given is in vitro ADME. In general terms: Liver microsomes are vesicles of endoplasmic reticulum, rich in cytochrome P450 enzymes.
The test system of series [3] is endogenous levels of FAAH substrates AEA, PEA, OEA and of 2-AG, AA. The series is described as follows: In vivo pharmacodynamic studies: brain and liver lipid levels after inhibitor treatment (LC-MS). More on the design: species or system mouse (C57BL/6J). The settings on record: for Brain 2-AG (fold increase) / Brain AA (fold increase) / Brain AEA (fold increase) / Brain PEA (fold increase) / Liver 2-AG (fold increase) / Liver AEA (fold increase) / Liver PEA (fold increase): vs vehicle.
Procedure: This includes monitoring the effects of the inhibitors on the endogenous levels of the FAAH substrates anandamide (AEA, N-arachidonoyl ethanolamine), N-oleoyl ethanolamine (OEA), and N-palmitoyl ethanolamine (PEA), as well as the key lipids 2-arachidonoylglycerol (2-AG) and arachidonic acid (AA) that are not endogenous substrates for FAAH.
Inhibitors were prepared as a saline-emulphor emulsion for intraperitoneal (i.p.) administration by vortexing, sonicating, and gently heating neat compound directly into an 18:1:1 v/v/v solution of saline:ethanol:emulphor, or as a homogeneous PEG solution for oral administration (p.o.) by vortexing, sonicating, and gently heating neat compound directly into PEG300 (Fluka). Male C57BL/6J mice (<6 months old, 20-28 g) were administered inhibitors in saline-emulphor emulsion or an 18:1:1 v/v/v saline:emulphor:ethanol vehicle i.p. at a volume of 10 μL/g weight, or alternatively inhibitors in PEG300 or a PEG300 vehicle p.o. at a volume of 4 μL/g weight. After the indicated amount of time, mice were anesthetized with isofluorane and killed by decapitation. Total brains (˜400 mg) and a portion of the liver (˜100 mg) were removed and flash frozen in liquid N2.
Tissue was weighed and subsequently Dounce homogenized in 2:1:1 v/v/v CHCl3:MeOH:Tris pH 8.0 (8 mL) containing standards for lipids (50 pmol d4-PEA, 2 pmol d4-AEA, 0.5 nmol ds-2-AG, and 10 nmol pentadecanoic acid). The mixture was vortexed and then centrifuged (1,400×g, 10 min). The organic layer was removed, dried under a stream of N2, resolubilized in 2:1 v/v CHCl3:MeOH (120 μL), and 10 μL of this resolubilized lipid was injected onto an Agilent G6410B QQQ instrument. […] Mobile phase A was composed of a 95:5 v/v H2O:MeOH, and mobile phase B was composed of a 65:35:5 v/v/v i-PrOH:MeOH:H2O. 0.1% Formic acid or 0.1% ammonium hydroxide was included to assist in ion formation in positive and negative ionization mode, respectively. The flow rate for each run started at 0.1 mL/min with 0% B. At 5 min, the solvent was immediately changed to 60% B with a flow rate of 0.4 mL/min and increased linearly to 100% B over 10 min. […] MS analysis was performed with an electrospray ionization (ESI) source. […] For negative polarity, the analysis was performed in MS2 scan mode from 100-1000 m/z. The capillary was set to 4 kV, the fragmentor was set to 100 V, and the delta EMV was set to 0. Lipids were quantified by measuring the area under the peak in comparison to the standards.

Series [4] deals with mice, acute thermal pain (tail flick at 52° C.). Kind of series: Mouse tail flick assay (52° C. warm water), acute thermal pain. The class given is in vivo, mouse (CD-1). The note with it: i.v. administration. As to the method: Concurrent with these studies, two prototypical inhibitors 12 and 14 were examined for antinociceptive activity in a preclinical model of acute thermal pain (tail flick at 52° C.) in mice alongside 2 and morphine (i.v. administration).
Male CD-1 (25-35 g, Charles River) mice were housed in groups of five in Plexiglas chambers with food and water available ad libitum. All animals were maintained on a 12 h light/dark cycle (lights on at 7:00 AM) in a temperature- and humidity-controlled animal colony. All tail-flick experiments were performed under an approved University of New England animal protocol in accordance with institutional guidelines and in accordance with the Guide for the Care and Use of Laboratory Animals as adopted and promulgated by the National Institutes of Health. Efficacy of the test compound was assessed using the 52° C. warm water tail-flick test. The latency to the first sign of a rapid tail-flick was taken as the behavioral endpoint. Each mouse was first tested for baseline latency by immersing its tail in the water and recording the time to response. Mice not responding within 5 sec were excluded from further testing. Mice were then administered the test compound and tested for antinociception at various time points afterwards. Antinociception was calculated by the following formula: % Antinociception=100×(test latency−control latency)/(10−control latency). A maximum score was assigned (100%) to animals not responding within 10 sec to avoid tissue damage.
(In general: Hot-plate and tail-flick tests time the reaction to a heat stimulus.)

In the next series the target is T1, human FAAH (hFAAH) (Homo sapiens, UniProt O00519).
T1 construct: The full-length human FAAH (hFAAH) was expressed in COS-7 cells; expressed in transfected cells; host or cells: COS-7 (transiently transfected with human FAAH cDNA)
T1 sequence (O00519 1-579): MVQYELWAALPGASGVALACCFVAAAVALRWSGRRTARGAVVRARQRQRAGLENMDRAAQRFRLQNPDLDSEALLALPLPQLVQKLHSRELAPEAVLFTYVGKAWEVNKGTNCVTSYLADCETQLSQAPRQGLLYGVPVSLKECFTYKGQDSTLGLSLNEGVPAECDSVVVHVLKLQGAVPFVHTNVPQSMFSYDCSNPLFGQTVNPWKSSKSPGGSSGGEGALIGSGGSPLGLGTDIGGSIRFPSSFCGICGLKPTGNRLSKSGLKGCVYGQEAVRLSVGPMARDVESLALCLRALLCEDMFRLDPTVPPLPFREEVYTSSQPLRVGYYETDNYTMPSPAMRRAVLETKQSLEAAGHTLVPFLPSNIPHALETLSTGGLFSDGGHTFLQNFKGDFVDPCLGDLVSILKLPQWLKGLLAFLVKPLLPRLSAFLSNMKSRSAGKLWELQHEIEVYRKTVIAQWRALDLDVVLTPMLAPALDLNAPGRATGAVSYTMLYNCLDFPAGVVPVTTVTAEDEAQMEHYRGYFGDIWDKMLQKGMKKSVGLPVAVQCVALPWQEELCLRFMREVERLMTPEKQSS
Kind of series: Enzyme assay: inhibition of human FAAH (lysate of hFAAH-transfected COS-7 cells), 14C-oleamide hydrolysis. Type of series: biochemical. The note with it: for reduction in activity against the human enzyme versus rat FAAH: hFAAH vs rFAAH, active (S)-enantiomers. As to the method:
Enzyme assays were performed at 20-23° C. with purified recombinant rat FAAH expressed in Escherichia coli or with solubilized COS-7 membrane extracts from cells transiently transfected with human FAAH cDNA (where specifically indicated) in a buffer of 125 mM Tris/1 mM EDTA/0.2% glycerol/0.02% Triton X-100/0.4 mM Hepes, pH 9.0.
^14C-labeled oleamide was prepared from ^14C-labeled oleic acid. The truncated rat FAAH (rFAAH) was expressed in E. coli and purified. The purified recombinant rFAAH was used in the inhibition assays unless otherwise indicated. The full-length human FAAH (hFAAH) was expressed in COS-7 cells as described, and the lysate of hFAAH-transfected COS-7 cells was used in the inhibition assays where explicitly indicated.
The inhibition assays were performed as follows. […] The enzyme reaction was terminated by transferring 20 μL of the reaction mixture to 500 μL of 0.1 N HCl at three different time points. The ^14C-labeled oleamide (substrate) and oleic acid (product) were extracted with EtOAc and analyzed by TLC as detailed. The Ki of the inhibitor was calculated using a Dixon plot as described (standard deviations are provided in the Supporting Information tables).

For series [5], the target named is T2, recombinant rat FAAH (rFAAH) (Rattus norvegicus, UniProt P97612).
T2 construct: The truncated rat FAAH (rFAAH) was expressed in E. coli and purified; made in house; host or cells: Escherichia coli
T2 sequence (P97612 30-579 limits assumed): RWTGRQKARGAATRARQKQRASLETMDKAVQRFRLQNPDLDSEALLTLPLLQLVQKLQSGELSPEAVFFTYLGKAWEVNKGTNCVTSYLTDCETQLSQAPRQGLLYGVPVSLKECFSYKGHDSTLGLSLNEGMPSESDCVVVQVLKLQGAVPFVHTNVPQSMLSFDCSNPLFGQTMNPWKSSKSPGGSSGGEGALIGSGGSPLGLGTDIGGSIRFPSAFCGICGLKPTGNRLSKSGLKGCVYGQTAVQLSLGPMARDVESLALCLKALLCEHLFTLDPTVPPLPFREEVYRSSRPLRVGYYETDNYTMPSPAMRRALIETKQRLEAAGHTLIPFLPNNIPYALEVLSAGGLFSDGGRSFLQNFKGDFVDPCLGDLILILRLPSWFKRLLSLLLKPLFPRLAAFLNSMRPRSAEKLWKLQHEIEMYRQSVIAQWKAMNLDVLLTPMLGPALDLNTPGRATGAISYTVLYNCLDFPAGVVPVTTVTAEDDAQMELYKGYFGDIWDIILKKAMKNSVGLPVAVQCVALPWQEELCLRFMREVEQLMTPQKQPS
The series is described as follows: Enzyme assay: inhibition of purified recombinant rat FAAH, 14C-oleamide hydrolysis, Ki by Dixon plot. Type of series: biochemical. The settings on record: Ki, rFAAH, Table 5, active (S)-enantiomers. In outline: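 Hydrolysis of 14C-oleamide at 20-23° C by purified truncated rat FAAH expressed in E. coli or by lysate of COS-7 cells transfected with full-length human FAAH, in 125 mM Tris/1 mM EDTA/0.2% glycerol/0.02% Triton X-100/0.4 mM Hepes, pH 9.0. Reaction stopped in 0.1 N HCl at three time points; substrate and product separated by TLC; Ki from Dixon plot.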

The mark [6] stands for this setting: Table 6, 30 mg/kg i.p., 1 h, single mouse.
The mark [7] stands for this setting: Table 7, i.p. (30 mg/kg), 3 mice per group.
[8] abbreviates: Table 7, oral (50 mg/kg), 3 mice per group.

Consider `O=C(c1ncc(-c2ccccn2)o1)C1CCc2cc(OCc3ccccc3)ccc2C1` (stereo not shown) [Compound 18, (6-(Benzyloxy)-1,2,3,4-tetrahydronaphthalen-2-yl)(5-(pyridin-2-yl)oxazol-2-yl)methanone], for which the half-life in series [1] and in series [2] was 12 to 15 min each time.
`O=C(O)c1cccc(-c2cnc(C(=O)C3CCc4cc(Oc5ccccc5)ccc4C3)o2)n1` (stereo not shown) [Compound 14, 6-(2-(6-Phenoxy-1,2,3,4-tetrahydronaphthalene-2-carbonyl)oxazol-5-yl)picolinic acid]: in series [3] (setting [6]), the “Brain 2-AG” value is on record as 14 pmol/g, the “Brain AA” value was 154 pmol/g, the “Brain AEA” value is given as 12 pmol/g and the “Brain PEA” value came out at 224 pmol/g. For the same molecule, in series [3] (setting [6]), the “Liver 2-AG” value was 0.35 pmol/g, the “Liver AEA” value worked out at 10 pmol/g, the “Liver PEA” value turned out to be 284 pmol/g and the “Brain 2-AG (fold increase)” value is listed as 1.0 fold increase. In addition, in series [3] (setting [6]), the “Brain AA (fold increase)” value came to 0.7 fold increase, the “Brain AEA (fold increase)” value was 1.5 fold increase, the “Brain PEA (fold increase)” value amounted to 2.0 fold increase and the “Liver 2-AG (fold increase)” value amounted to 1.1 fold increase. In series [3] (setting [6]), the “Liver AEA (fold increase)” value stood at 5 fold increase and the “Liver PEA (fold increase)” value was determined as 2.1 fold increase. In addition, in series [3] (setting [7]), the “Brain 2-AG” value stood at 8.5 pmol/g, the “Brain AEA” value is listed as 9.0 pmol/g, the “Brain PEA” value is given as 321 pmol/g and the “Brain AEA (fold increase)” value is 1.6 fold increase. In series [3] (setting [7]), the “Brain PEA (fold increase)” value amounted to 4.5 fold increase. Moreover, in series [3] (setting [8]), the “Brain 2-AG” value worked out at 11.2 pmol/g, the “Brain AEA” value was 19.8 pmol/g, the “Brain PEA” value is on record as 260 pmol/g and the “Brain AEA (fold increase)” value is reported as 3.5 fold increase. For the same molecule, the “Brain PEA (fold increase)” value in series [3] (setting [8]) is 3.7 fold increase. In addition, in series [4], the “dose needed for maximal effect relative to morphine” value is on record as 2 fold, the “duration of antinociceptive effect” value is reported as 150 min and the “time of maximal antinociceptive effect” value is 30 to 60 min. In addition, in series [4] (dose-response alongside morphine), the “maximal antinociceptive effect (efficacy)” value is recorded as “same maximal effect (efficacy) observed with morphine”. In addition, at human FAAH (hFAAH) (Table 5, active (S)-enantiomers), the affinity, expressed as Ki, was 110 nM. The “reduction in activity against the human enzyme versus rat FAAH” value on human FAAH (hFAAH) is given as 4 fold. Further, the inhibition constant Ki (in general, the dissociation constant of the complex between target and ligand, obtained from inhibition or displacement) in series [5] came to 25 nM.
For `O=C(CCCCCCc1ccccc1)c1ncc(-c2ccccn2)o1` [Compound 2, reference compound], the half-life (commonly the time in which the quantity being followed falls by half) in series [1] lay in the range of 2 to 4 min. For the same molecule, in series [3] (setting [6]), the “Brain AEA” value worked out at 38 pmol/g, the “Brain PEA” value is 540 pmol/g, the “Liver 2-AG” value was 0.28 pmol/g and the “Liver AEA” value stood at 14 pmol/g. In series [3] (setting [6]), the “Liver PEA” value is recorded as 208 pmol/g, the “Brain AEA (fold increase)” value is on record as 4.8 fold increase, the “Brain PEA (fold increase)” value is on record as 5.0 fold increase and the “Liver 2-AG (fold increase)” value is reported as 0.9 fold increase. Also, in series [3] (setting [6]), the “Liver AEA (fold increase)” value came out at 7 fold increase and the “Liver PEA (fold increase)” value was found to be 1.6 fold increase. Moreover, the “increase in brain levels of anandamide” value in series [3] (p.o. 50 mg/kg, 1 h) is listed as 11 fold. Further, the “reduction in activity against the human enzyme versus rat FAAH” value on human FAAH (hFAAH) is “no significant distinction”. For the same molecule, the half-life in series [2] lay within 2 to 4 min.
As to `O=C(O)c1cccc(-c2cnc(C(=O)C3Cc4ccc(Oc5ccccc5)cc4C3)o2)n1` (stereo not shown) [Compound 29, 6-(2-(5-Phenoxyindane-2-carbonyl)oxazol-5-yl)picolinic acid], in series [3] (setting [6]), the “Brain 2-AG” value is listed as 12 pmol/g, the “Brain AA” value amounted to 172 pmol/g, the “Brain AEA” value came out at 8 pmol/g and the “Brain PEA” value is 131 pmol/g. Also, in series [3] (setting [6]), the “Brain 2-AG (fold increase)” value was 0.9 fold increase, the “Brain AA (fold increase)” value amounted to 0.8 fold increase, the “Brain AEA (fold increase)” value was 1.0 fold increase and the “Brain PEA (fold increase)” value amounted to 1.2 fold increase.
For the molecule `O=C(c1ncc(-c2ccccn2)o1)C1Cc2ccc(Oc3ccccc3)cc2C1` (stereo not shown) [Compound 27, (5-Phenoxyindan-2-yl)(5-(pyridin-2-yl)oxazol-2-yl)methanone], in series [3] (setting [6]), the “Brain 2-AG” value worked out at 11 pmol/g, the “Brain AA” value came out at 190 pmol/g, the “Brain AEA” value came out at 24 pmol/g and the “Brain PEA” value turned out to be 800 pmol/g. Also, in series [3] (setting [6]), the “Brain 2-AG (fold increase)” value was 0.8 fold increase, the “Brain AA (fold increase)” value was determined as 0.9 fold increase, the “Brain AEA (fold increase)” value is given as 3.0 fold increase and the “Brain PEA (fold increase)” value is listed as 7.4 fold increase.
As to `CN1CC[C@]23c4c5ccc(O)c4O[C@H]2[C@@H](O)C=C[C@H]3[C@H]1C5` [morphine, reference compound], the “duration of antinociceptive effect” value in series [4] came to 150 min.
